Columns and labels:
[1] = test system: fibroblasts from a Fanconi D1 patient; conditions: reported by Treszezamsky, Cancer Res. 2007; cited from earlier work
[2] = test system: BRCA2^Δex11/P3280H cells; assay: Cell proliferation assay upon drug treatment, SyVaL clone P3280H; format: cell-based, human; conditions: 6 days
Procedure: (§1) Alternately, exon 27 was targeted in the hemizygous cells using a construct whose right homology arm included intact exon 27 and individual sequence variants. Homologous integration of the construct, the presence of desired sequence variants and allelic phase of the construct were determined by allele-specific PCR and sequencing. An analogous vector design was used by Hurley et al. to introduce an ATR mutation into alleles of a human cell (Hurley, P. J. et al., Oncogene. 2007. 26, 2535-42, incorporated herein by reference).
(§2) In each well of 96-well plates, 1000 cells were plated, allowed to adhere and treated with various drugs. The drugs were obtained from Sigma (St. Louis, Mo.) except for SJG-136 which was generously provided by Ipsen Ltd. and the National Cancer Institute, NIH. The cells were washed after 6 days and lysed in 100 uL of water. Fluorescence was measured after addition of 0.5% Picogreen® (Molecular Probes, Eugene, Oreg.) using a fluorometer (Fusion®, Perkin Elmer, Shelton, Conn.). Three independent experiments were performed per drug.

[3] = test system: BRCA2^Δex11/S3291A cells; assay: Cell proliferation assay upon drug treatment, SyVaL clone S3291A; format: cell-based, human; conditions: 6 days
Procedure: as §1, §2

[4] = test system: BRCA2^Δex11/Δex11 cells (DLD1); assay: Cell proliferation assay upon drug treatment, BRCA2 knock-out cells; format: cell-based, human; conditions: for FoldΔ: ratio of the IC50 of cells having the hemizygous wild-type allele to the IC50 of cells having the mutated allele: BRCA2^Δex11/Δex11 cells vs control cells, cell proliferation; for FoldΔ: ratio of the IC50 of cells having the hemizygous wild-type allele to the IC50 of cells having the mutated allele / Sensitivity of BRCA2-deficient cells compared to parental and heterozygous cells (in words): 6 days; for Sensitivity of BRCA2-deficient cells compared to parental and heterozygous cells (in words): cell proliferation following drug treatment
Procedure: (§3) DLD1 cells were obtained from ATCC, cultured in conventional media supplemented with 10% fetal calf serum, L-glutamine and penicillin/streptomycin.
as §2

[5] = test system: BRCA2^Δex11/S3291E cells; assay: Cell proliferation assay upon drug treatment, SyVaL clone S3291E; format: cell-based, human; conditions: 6 days
Procedure: as §1, §2

[6] = test system: BRCA2^wt/Δex11 cells (DLD1); assay: Cell proliferation assay upon drug treatment, hemizygous clone; format: cell-based, human; conditions: 6 days
Procedure: as §3, §2

[7] = test system: BRCA2-deficient mouse thymocytes; conditions: Flores et al., Mol Carcinog 2002; cited from earlier work
[8] = test system: BRCA2^Δex11/Y3308Y cells; assay: Cell proliferation assay upon drug treatment, SyVaL clone Y3308Y; format: cell-based, human; conditions: 6 days
Procedure: as §1, §2

[9] = test system: BRCA2^Δex11/P3292L cells; assay: Cell proliferation assay upon drug treatment, SyVaL clone P3292L; format: cell-based, human; conditions: 6 days
Procedure: as §1, §2

[10] = test system: BRCA2^Δex11/Y3308X cells; assay: Cell proliferation assay upon drug treatment, SyVaL clone Y3308X; format: cell-based, human; conditions: 6 days
Procedure: as §1, §2

[11] = test system: BRCA2-deficient mouse small intestines; conditions: Walker et al., J Biol Chem. 2004; cited from earlier work
[12] = test system: ATR^s/s DLD1 colorectal cancer cells; assay: Proliferation assay for MMC sensitivity in ATR knock-in cells; format: cell-based, human; conditions: 6 d after treatment
Procedure: For siRNA experiments, the cells were plated in 6-well plates at 500,000 cells/well at 24 h after siRNA transfection. Separate aliquots of each sample were counted at six different time points one to four days after transfection, using two separate aliquots for each time point. Dead cells were separately determined by trypan-blue exclusion and were negligible in number in all samples (<2%). For comparisons between parental cells and FANCD2^+/−. clones, 500,000 cells/well were plated and counted at six time points between 0 and 48 h. Two independent experiments were performed. For MMC sensitivity studies, Picogreen® (Invitrogen) proliferation assays were performed in quadruplicate as described in Gallmeier et al., 2006.

[13] = test system: BRCA2 proficient cells; assay: Rad51 focus-formation (immunofluorescence); format: cell-based, human; conditions: MMC 2.4 μg/ml, 24 h incubation
Procedure: Cells were treated with MMC (2.4 μg/ml) or gamma irradiation and fixed in PBS/2% paraformaldehyde after 24 h incubation. Following permeabilization in PBS/0.5% Triton X-100 and blocking for 30 min in PBS/1% bovine serum albumin/0.15% glycine, the cells were incubated with an anti-Rad51 antibody (1:200, Calbiochem, San Diego, Calif.) for 2 h. Cells were then washed and incubated with a […] (1:200, Alexa® 488, Molecular Probes, Eugene, Oreg.) for 1 h. After washing, slides were mounted and analyzed by a fluorescent microscope (Zeiss Axiover 135, Maple Grove, Minn.) and Metamorph 4.6 software (Universtal Imaging, Downington, Pa.). Pictures were acquired, keeping exposure time and software settings constant for all samples.
Baseline or induced Rad51 focus formation was considered “negative” when less than 5% or 20%, respectively, of cells had more than 5 nuclear foci and “positive” when more than 5% or 30%, respectively, of cells had more than 5 nuclear foci. Intermediate phenotypes were not observed.

[14] = test system: BRCA2^Δex11/Δex11 cells; assay: Chromosome aberration assay; format: cell-based, human; conditions: BRCA2^Δex11/Δex11 vs BRCA2^wt/Δex11, MMC at equitoxic doses, 24 h
Procedure: Cells were treated with equitoxic doses of MMC (80 nM for BRCA2^wt/Δex11 and 6 nM for BRCA2^Δex11/Δex11) for 24 h. For each sample, 50 metaphases were analyzed using standard techniques by a core facility.

[15] = test system: BRCA2-deficient cells; assay: Cell-cycle analysis by flow cytometry; format: cell-based, human; conditions: 48 h after MMC treatment
Procedure: Cells were treated with MMC for 48 hours, processed as described previously (Vindelov, L. L., et al., Cytometry 1983. 3: 323-7, incorporated herein by reference) and analyzed by flow cytometry.

SMILES: COc1cc([C@@H]2c3cc4c(cc3[C@@H](O[C@@H]3O[C@@H]5CO[C@@H](C)O[C@H]5[C@H](O)[C@H]3O)[C@H]3COC(=O)[C@H]23)OCO4)cc(OC)c1O [Etoposide, etoposide]
- Difference in sensitivity of BRCA2 deficient cells to the drug [1]: 2.75 fold
- FoldΔ: ratio of the IC50 of cells having the hemizygous wild-type allele to the IC50 of cells having the mutated allele [2]: NoΔ
- FoldΔ: ratio of the IC50 of cells having the hemizygous wild-type allele to the IC50 of cells having the mutated allele ([2]; listed as etoposide): not significantly more sensitive
- FoldΔ: ratio of the IC50 of cells having the hemizygous wild-type allele to the IC50 of cells having the mutated allele [3]: NoΔ
- Etoposide hypersensitivity in combination with other anticancer agents ([4]; BRCA2-deficient cells): additive to, but not synergistic with
- FoldΔ: ratio of the IC50 of cells having the hemizygous wild-type allele to the IC50 of cells having the mutated allele [4]: 10-foldΔ
- FoldΔ: ratio of the IC50 of cells having the hemizygous wild-type allele to the IC50 of cells having the mutated allele ([4]; listed as etoposide): 10 fold
- FoldΔ: ratio of the IC50 of cells having the hemizygous wild-type allele to the IC50 of cells having the mutated allele [5]: 3-foldΔ
- FoldΔ: ratio of the IC50 of cells having the hemizygous wild-type allele to the IC50 of cells having the mutated allele ([5]; listed as etoposide): 3 fold
- FoldΔ: ratio of the IC50 of cells having the hemizygous wild-type allele to the IC50 of cells having the mutated allele [6]: NoΔ
- Etoposide sensitivity [7]: no increased etoposide sensitivity
- FoldΔ: ratio of the IC50 of cells having the hemizygous wild-type allele to the IC50 of cells having the mutated allele [8]: NoΔ
- FoldΔ: ratio of the IC50 of cells having the hemizygous wild-type allele to the IC50 of cells having the mutated allele ([8]; listed as etoposide): did not differ from control cells
- FoldΔ: ratio of the IC50 of cells having the hemizygous wild-type allele to the IC50 of cells having the mutated allele [9]: NoΔ
- FoldΔ: ratio of the IC50 of cells having the hemizygous wild-type allele to the IC50 of cells having the mutated allele ([9]; listed as etoposide): not significantly more sensitive
- FoldΔ: ratio of the IC50 of cells having the hemizygous wild-type allele to the IC50 of cells having the mutated allele [10]: 10-foldΔ
- FoldΔ: ratio of the IC50 of cells having the hemizygous wild-type allele to the IC50 of cells having the mutated allele ([10]; listed as etoposide): 10 fold
- Etoposide sensitivity [11]: no increased etoposide sensitivity

SMILES: CO[C@@]12[C@H](COC(N)=O)C3=C(C(=O)C(C)=C(N)C3=O)N1C[C@@H]1N[C@@H]12 [MMC, mitomycin C]
- MMC sensitivity compared to control cells [12]: strikingly more sensitive
- FoldΔ: ratio of the IC50 of cells having the hemizygous wild-type allele to the IC50 of cells having the mutated allele [2]: not significantly more sensitive and NoΔ
- FoldΔ: ratio of the IC50 of cells having the hemizygous wild-type allele to the IC50 of cells having the mutated allele [3]: NoΔ
- FoldΔ: ratio of the IC50 of cells having the hemizygous wild-type allele to the IC50 of cells having the mutated allele [4]: 20-foldΔ
- Sensitivity of BRCA2-deficient cells compared to parental and heterozygous cells (in words) [4]: greatly increased sensitivity
- FoldΔ: ratio of the IC50 of cells having the hemizygous wild-type allele to the IC50 of cells having the mutated allele [6]: NoΔ
- FoldΔ: ratio of the IC50 of cells having the hemizygous wild-type allele to the IC50 of cells having the mutated allele ([6]; listed as mitomycin): absence of mitomycin hypersensitivity
- Cells with induced Rad51 foci (more than 5 foci) [13]: 60-80%
- Rates of chromosomal aberrations, including breaks and radials [14]: much higher rates of chromosomal aberrations
- FoldΔ: ratio of the IC50 of cells having the hemizygous wild-type allele to the IC50 of cells having the mutated allele [8]: did not differ from control cells and NoΔ
- Cell cycle effect (genotype-dependent toxicity) [15]: profound G2/M arrest
- FoldΔ: ratio of the IC50 of cells having the hemizygous wild-type allele to the IC50 of cells having the mutated allele [9]: not significantly more sensitive and NoΔ

SMILES: Cc1nc2c(O)cccc2c(=O)[nH]1 [NU1025]
- FoldΔ: ratio of the IC50 of cells having the hemizygous wild-type allele to the IC50 of cells having the mutated allele [4]: 20 fold

SMILES: C=C1C[C@H]2C=Nc3cc(OCCCOc4cc5c(cc4OC)C(=O)N4CC(=C)C[C@H]4C=N5)c(OC)cc3C(=O)N2C1 [SJG]
- Sensitivity of BRCA2-deficient cells compared to parental and heterozygous cells (in words) [4]: greatly increased sensitivity

SMILES: O=c1cc(-c2ccc(O)cc2)oc2cc(O)cc(O)c12 [apigenin]
- Sensitivity of BRCA2-deficient cells compared to parental and heterozygous cells (in words) [4]: No differences in sensitivities

SMILES: CC[C@@]1(O)C(=O)OCc2c1cc1n(c2=O)Cc2cc3ccccc3nc2-1 [camptothecin]
- FoldΔ: ratio of the IC50 of cells having the hemizygous wild-type allele to the IC50 of cells having the mutated allele [4]: 6 fold

SMILES: N.N.O=C([O-])C1(C(=O)[O-])CCC1.[Pt+2] [carboplatin]
- Sensitivity of BRCA2-deficient cells compared to parental and heterozygous cells (in words) [4]: greatly increased sensitivity

SMILES: N.N.[Cl][Pt][Cl] [cisplatin]
- Sensitivity of BRCA2-deficient cells compared to parental and heterozygous cells (in words) [4]: greatly increased sensitivity

SMILES: COc1cc(/C=C/C(=O)CC(=O)/C=C/c2ccc(O)c(OC)c2)ccc1O [curcumin]
- Sensitivity of BRCA2-deficient cells compared to parental and heterozygous cells (in words) [4]: No differences in sensitivities

SMILES: COc1cccc2c1C(=O)c1c(O)c3c(c(O)c1C2=O)C[C@@](O)(C(=O)CO)C[C@@H]3O[C@H]1C[C@H](N)[C@H](O)[C@H](C)O1 [doxorubicin]
- FoldΔ: ratio of the IC50 of cells having the hemizygous wild-type allele to the IC50 of cells having the mutated allele [4]: 10 fold

SMILES: Nc1ccn([C@@H]2O[C@H](CO)[C@@H](O)C2(F)F)c(=O)n1 [gemcitabine]
- Sensitivity of BRCA2-deficient cells compared to parental and heterozygous cells (in words) [4]: No differences in sensitivities

SMILES: COc1ccc([C@@H]2CC(=O)c3c(O)cc(O[C@@H]4O[C@H](CO[C@@H]5O[C@@H](C)[C@H](O)[C@@H](O)[C@H]5O)[C@@H](O)[C@H](O)[C@H]4O)cc3O2)cc1O [hesperidin]
- Sensitivity of BRCA2-deficient cells compared to parental and heterozygous cells (in words) [4]: No differences in sensitivities

SMILES: N[C@@H](Cc1ccc(N(CCCl)CCCl)cc1)C(=O)O [melphalan]
- Sensitivity of BRCA2-deficient cells compared to parental and heterozygous cells (in words) [4]: greatly increased sensitivity

SMILES: C#C[C@]1(O)CC[C@H]2[C@@H]3CCC4=CC(=O)CC[C@@H]4[C@H]3CC[C@@]21C [norethindrone]
- Sensitivity of BRCA2-deficient cells compared to parental and heterozygous cells (in words) [4]: No differences in sensitivities

SMILES: O=C1[O][Pt]2([NH][C@@H]3CCCC[C@H]3[NH]2)[O]C1=O [oxaliplatin]
- Sensitivity of BRCA2-deficient cells compared to parental and heterozygous cells (in words) [4]: greatly increased sensitivity

SMILES: CC[C@]1(O)C[C@@H]2CN(CCc3c([nH]c4ccccc34)[C@@](C(=O)OC)(c3cc4c(cc3OC)N(C)[C@H]3[C@@](O)(C(=O)OC)[C@H](OC(C)=O)[C@]5(CC)C=CCN6CC[C@]43[C@@H]65)C2)C1 [vinblastine]
- Sensitivity of BRCA2-deficient cells compared to parental and heterozygous cells (in words) [4]: No differences in sensitivities

Source: patent US9309511B2, “Functional assay for identification of loss-of-function mutations in genes” (priority 2007, dated 2016)
